# ChEMBL document CHEMBL5036332, “Glucose-Lipopeptide Conjugates Reveal the Role of Glucose Modification Position in Complexation and the Potential of Malignant Melanoma Therapy” (J Med Chem, 2021)
# *1 amine or outer side, *2 acyl side, *3 side chain or, on linkers, in order; H or OH if unused. Where a SMILES comes first, the peptide text is derived from it. Side-chain parts run from the residue outwards. The star is where a group is joined. NH(CH2)3O(βDGlc) = OC[C@H]1O[C@@H](OCCCN*)[C@H](O)[C@@H](O)[C@@H]1O; Glutaryl = O=C(CCCC(=O)[*:2])[*:1]; Lauroyl = CCCCCCCCCCCC(=O)*
# Columns and labels:
# [1] = test system: B16-F10; assay: Cytotoxicity against mouse B16-F10 cells assessed as cell viability after 24 hrs by CCK-8 assay; assay type: functional, cell-based; conditions: B16-F10, 24 h
# [2] = species on record: Homo sapiens; assay: Binding affinity to membrane (unknown origin) assessed as binding free energy
# [3] = biological target: T1, Solute carrier family 2, facilitated glucose transporter member 1 (Homo sapiens) (UniProt P11166); assay: Binding affinity to GLUT1 (unknown origin) assessed as binding free energy
# T1 sequence (whole entry): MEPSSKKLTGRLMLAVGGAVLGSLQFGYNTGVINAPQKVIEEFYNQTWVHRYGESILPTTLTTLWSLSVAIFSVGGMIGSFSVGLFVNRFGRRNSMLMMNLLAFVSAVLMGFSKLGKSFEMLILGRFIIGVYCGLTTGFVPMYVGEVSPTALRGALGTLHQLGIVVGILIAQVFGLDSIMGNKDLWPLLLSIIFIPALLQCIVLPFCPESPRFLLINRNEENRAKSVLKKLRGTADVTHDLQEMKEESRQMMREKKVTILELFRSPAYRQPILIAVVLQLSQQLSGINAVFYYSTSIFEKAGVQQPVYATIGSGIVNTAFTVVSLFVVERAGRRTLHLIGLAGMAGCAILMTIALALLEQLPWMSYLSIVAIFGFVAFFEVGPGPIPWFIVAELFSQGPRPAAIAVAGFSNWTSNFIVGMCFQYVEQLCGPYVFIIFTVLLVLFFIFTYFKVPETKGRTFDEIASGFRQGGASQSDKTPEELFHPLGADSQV
# [4] = biological target: T1, Solute carrier family 2, facilitated glucose transporter member 1 (Homo sapiens); assay: Binding affinity to GLUT1 (unknown origin) membrane assessed as free energy
deltaG [2] [kcal/mol],deltaG [3] [kcal/mol],deltaG [4] [kcal/mol],SMILES,IC50 [1] [µM]
-61.5,-61.7,-73.7,CCCCCCCCCCCC(=O)N[C@@H](CCCCNC(=O)CCCC(=O)NCCCO[C@@H]1O[C@H](CO)[C@@H](O)[C@H](O)[C@H]1O)C(=O)NCC(=O)N[C@@H](Cc1c[nH]c2ccccc12)C(=O)N[C@@H](Cc1ccccc1)C(=O)N[C@@H](CCCNC(=N)N)C(=O)N[C@@H](C)C(=O)N[C@@H](CCSC)C(=O)N[C@@H](CCCNC(=N)N)C(=O)N[C@@H](CO)C(=O)N[C@H](C(=O)N[C@@H](C)C(=O)N[C@@H](CCCNC(=N)N)C(=O)N[C@@H](Cc1ccccc1)C(=O)N[C@H](C(=O)N[C@@H](C)C(=O)N[C@@H](CCCNC(=N)N)C(=O)N[C@@H](CCC(=O)O)C(=O)N[C@@H](CCCNC(=N)N)C(=O)N[C@@H](CC(C)C)C(=O)N[C@@H](CCCNC(=N)N)C(=O)N[C@@H](CCC(=O)O)C(=O)N[C@@H](Cc1cnc[nH]1)C(=O)N[C@@H](CC(C)C)C(N)=O)[C@@H](C)CC)[C@@H](C)CC (Lauroyl-K([Glutaryl-NH(CH2)3O(βDGlc)])GWFRAMRSIARFIARERLREHL-NH2),7.2
-63.6,-64.3,-64.1,CCCCCCCCCCCC(=O)N[C@@H](CCCNC(=N)N)C(=O)NCC(=O)N[C@@H](Cc1c[nH]c2ccccc12)C(=O)N[C@@H](Cc1ccccc1)C(=O)N[C@@H](CCCCNC(=O)CCCC(=O)NCCCO[C@@H]1O[C@H](CO)[C@@H](O)[C@H](O)[C@H]1O)C(=O)N[C@@H](C)C(=O)N[C@@H](CCSC)C(=O)N[C@@H](CCCNC(=N)N)C(=O)N[C@@H](CO)C(=O)N[C@H](C(=O)N[C@@H](C)C(=O)N[C@@H](CCCNC(=N)N)C(=O)N[C@@H](Cc1ccccc1)C(=O)N[C@H](C(=O)N[C@@H](C)C(=O)N[C@@H](CCCNC(=N)N)C(=O)N[C@@H](CCC(=O)O)C(=O)N[C@@H](CCCNC(=N)N)C(=O)N[C@@H](CC(C)C)C(=O)N[C@@H](CCCNC(=N)N)C(=O)N[C@@H](CCC(=O)O)C(=O)N[C@@H](Cc1cnc[nH]1)C(=O)N[C@@H](CC(C)C)C(N)=O)[C@@H](C)CC)[C@@H](C)CC (Lauroyl-RGWFK([Glutaryl-NH(CH2)3O(βDGlc)])AMRSIARFIARERLREHL-NH2),5.3
-27.5,-58.5,-87.4,CCCCCCCCCCCC(=O)N[C@@H](CCCNC(=N)N)C(=O)NCC(=O)N[C@@H](Cc1c[nH]c2ccccc12)C(=O)N[C@@H](Cc1ccccc1)C(=O)N[C@@H](CCCNC(=N)N)C(=O)N[C@@H](C)C(=O)N[C@@H](CCSC)C(=O)N[C@@H](CCCCNC(=O)CCCC(=O)NCCCO[C@@H]1O[C@H](CO)[C@@H](O)[C@H](O)[C@H]1O)C(=O)N[C@@H](CO)C(=O)N[C@H](C(=O)N[C@@H](C)C(=O)N[C@@H](CCCNC(=N)N)C(=O)N[C@@H](Cc1ccccc1)C(=O)N[C@H](C(=O)N[C@@H](C)C(=O)N[C@@H](CCCNC(=N)N)C(=O)N[C@@H](CCC(=O)O)C(=O)N[C@@H](CCCNC(=N)N)C(=O)N[C@@H](CC(C)C)C(=O)N[C@@H](CCCNC(=N)N)C(=O)N[C@@H](CCC(=O)O)C(=O)N[C@@H](Cc1cnc[nH]1)C(=O)N[C@@H](CC(C)C)C(N)=O)[C@@H](C)CC)[C@@H](C)CC (Lauroyl-RGWFRAMK([Glutaryl-NH(CH2)3O(βDGlc)])SIARFIARERLREHL-NH2),4.1
-66.8,-60.1,-72.8,CCCCCCCCCCCC(=O)N[C@@H](CCCNC(=N)N)C(=O)NCC(=O)N[C@@H](Cc1c[nH]c2ccccc12)C(=O)N[C@@H](Cc1ccccc1)C(=O)N[C@@H](CCCNC(=N)N)C(=O)N[C@@H](C)C(=O)N[C@@H](CCSC)C(=O)N[C@@H](CCCNC(=N)N)C(=O)N[C@@H](CO)C(=O)N[C@H](C(=O)N[C@@H](C)C(=O)N[C@@H](CCCNC(=N)N)C(=O)N[C@@H](Cc1ccccc1)C(=O)N[C@H](C(=O)N[C@@H](C)C(=O)N[C@@H](CCCNC(=N)N)C(=O)N[C@@H](CCC(=O)O)C(=O)N[C@@H](CCCCNC(=O)CCCC(=O)NCCCO[C@@H]1O[C@H](CO)[C@@H](O)[C@H](O)[C@H]1O)C(=O)N[C@@H](CC(C)C)C(=O)N[C@@H](CCCNC(=N)N)C(=O)N[C@@H](CCC(=O)O)C(=O)N[C@@H](Cc1cnc[nH]1)C(=O)N[C@@H](CC(C)C)C(N)=O)[C@@H](C)CC)[C@@H](C)CC (Lauroyl-RGWFRAMRSIARFIAREK([Glutaryl-NH(CH2)3O(βDGlc)])LREHL-NH2),3.3
-65.7,-77.1,-123,CCCCCCCCCCCC(=O)N[C@@H](CCCNC(=N)N)C(=O)NCC(=O)N[C@@H](Cc1c[nH]c2ccccc12)C(=O)N[C@@H](Cc1ccccc1)C(=O)N[C@@H](CCCNC(=N)N)C(=O)N[C@@H](C)C(=O)N[C@@H](CCSC)C(=O)N[C@@H](CCCNC(=N)N)C(=O)N[C@@H](CO)C(=O)N[C@H](C(=O)N[C@@H](C)C(=O)N[C@@H](CCCNC(=N)N)C(=O)N[C@@H](Cc1ccccc1)C(=O)N[C@H](C(=O)N[C@@H](C)C(=O)N[C@@H](CCCNC(=N)N)C(=O)N[C@@H](CCC(=O)O)C(=O)N[C@@H](CCCNC(=N)N)C(=O)N[C@@H](CC(C)C)C(=O)N[C@@H](CCCCNC(=O)CCCC(=O)NCCCO[C@@H]1O[C@H](CO)[C@@H](O)[C@H](O)[C@H]1O)C(=O)N[C@@H](CCC(=O)O)C(=O)N[C@@H](Cc1cnc[nH]1)C(=O)N[C@@H](CC(C)C)C(N)=O)[C@@H](C)CC)[C@@H](C)CC (Lauroyl-RGWFRAMRSIARFIARERLK([Glutaryl-NH(CH2)3O(βDGlc)])EHL-NH2),3.5
-87.9,-61,-79.9,CCCCCCCCCCCC(=O)N[C@@H](CCCNC(=N)N)C(=O)NCC(=O)N[C@@H](Cc1c[nH]c2ccccc12)C(=O)N[C@@H](Cc1ccccc1)C(=O)N[C@@H](CCCNC(=N)N)C(=O)N[C@@H](C)C(=O)N[C@@H](CCSC)C(=O)N[C@@H](CCCNC(=N)N)C(=O)N[C@@H](CO)C(=O)N[C@H](C(=O)N[C@@H](C)C(=O)N[C@@H](CCCNC(=N)N)C(=O)N[C@@H](Cc1ccccc1)C(=O)N[C@@H](CC(C)C)C(=O)N[C@@H](C)C(=O)N[C@@H](CCCCNC(=O)CCCC(=O)NCCCO[C@@H]1O[C@H](CO)[C@@H](O)[C@H](O)[C@H]1O)C(=O)N[C@@H](CCC(=O)O)C(=O)N[C@@H](CCCNC(=N)N)C(=O)N[C@@H](CC(C)C)C(=O)N[C@@H](CCCNC(=N)N)C(=O)N[C@@H](CCC(=O)O)C(=O)N[C@@H](Cc1cnc[nH]1)C(=O)N[C@@H](CC(C)C)C(N)=O)[C@@H](C)CC (Lauroyl-RGWFRAMRSIARFLAK([Glutaryl-NH(CH2)3O(βDGlc)])ERLREHL-NH2),3.8
